Source: patent US12624057B2, “Bisphosphonate quinolone conjugates and uses thereof” (BIOVINC, LLC, priority 2016, dated 2026)
“Also recorded” adds a separate entry of the source.

Experiment: Hydroxyapatite (HA) binding assay, spectroscopic analysis of supernatant
Type: physicochemical
Settings: supernatant at 0 hr versus 24 hrs, TSB medium
Method: Solutions containing BP-ciprofloxacin and HA spherules were introduced to wells of 24-well plate. […] Plates were shaken automatically in the spectrometer prior to assessment. Next, plates were left for 24 h/37° C./shaking. After 24 hours, absorbance was measured once again. To assess the relative concentration of the conjugate at 0 hr and 24 hrs, values of absorbance taken in the beginning and at the end of experiment were compared.
Spectroscopic analysis of 6 and 11 in Tryptic Soy Broth (TSB) microbiological media with the addition of HA spherules: Various conjugate concentrations were introduced to HA powder (spherules) suspended in TSB microbiological medium. Solutions containing BP-ciprofloxacin an HA spherules were introduced to wells of a 24-well plate. […] Plates were shaken automatically in the spectrometer prior to assessment. Next, plates were left for 24 hrs/37° C./shaking. After 24 hrs, absorbance was measured once again. To assess the relative concentration of the conjugate at 0 hr and 24 hrs, values of absorbance taken in the beginning and at the end of experiment were compared. The excitation slit, emission slit, integration time, and increment were optimized based on the concentration of samples.

O=C(O)c1cn(C2CC2)c2cc(N3CCN(C(=O)Oc4ccc(CC(P(=O)(O)O)P(=O)(O)O)cc4)CC3)c(F)cc2c1=O [Compound 6, 1-cyclopropyl-7-(4-((4-(2,2-diphosphonoethyl)phenoxy)carbonyl)piperazin-1-yl)-6-fluoro-4-oxo-1,4-dihydroquinoline-3-carboxylic acid]
adsorption to hydroxyapatite (HA): significant adsorption and retention of the conjugate by HA; also recorded: effective adsorption and retention to HA spherules
adsorption to hydroxyapatite (HA) (listed as BCC): taken up by the HA beads; also recorded: confirms adsorption of conjugate to HA
adsorption to hydroxyapatite (HA) (listed as BP-ciprofloxacin): significant adsorption and retention of the conjugate by HA
